These results are taken from article PMC12700550, “DLL4^+ neutrophils promote Notch1-mediated endothelial PANoptosis to exacerbate acute lung injury in sepsis” (The Journal of Clinical Investigation, 2025).

Test [1] relates to ZBP1. The test can be described thus: ZBP1 in pulmonary endothelial cells (CD31) of CLP mice, confocal immunofluorescence. In kind it is in vivo, mouse. To be noted: sepsis, 10 mg/kg NDI, 20 h. On the procedure:
(§1) Sepsis was induced in mice by cecal ligation and puncture (CLP) as described previously ([45], [46]). Mice were anesthetized with isoflurane to a surgical plane and placed in a supine position. CLP was performed through a midline laparotomy. The abdomen was shaved and disinfected. Through a 2 cm midline incision, the cecum was exposed and then ligated with a 4-0 silk suture 1 cm proximal from the distal cecal extremity. For 20-hour CLP experiments, the cecum was punctured twice with a 22-gauge needle. A small amount of cecal content was extruded through both holes, and the ligated cecum was returned to the peritoneal cavity. The wound was closed in layers. For 10-day sepsis survival studies, the cecum was punctured once with a 22-gauge needle. A small amount of cecal content was extruded. Mice were allocated to the vehicle and adoptive transfer of DLL4^+ neutrophils or DLL4^– neutrophils groups. Adoptive transfer mice received a retro-orbital injection of 1 × 10^6 cells per mouse DLL4^+ neutrophils or DLL4^– neutrophils in […] phosphate-buffered saline (PBS) immediately after abdominal closure in both the 20-hour experiments and the survival study. […]
For immunohistochemistry staining, paraffin-embedded lung tissue sections were deparaffinized and dewaxed in xylene and a series of ethanol. […] The images were analyzed with ImageJ Fiji (NIH).

For test [2], the system named is TNF-α. Nature of the test: Lung TNF-α mRNA, CLP mice. Conditions: 20 h; for lung TNF-α mRNA (Figure 6F): 10 mg/kg NDI, vs sham, individual mice. Format: in vivo, mouse. The procedure:
as §1, with “study. Vehicle groups received an equivalent volume of PBS, while treatment groups received NDI 10 mg/kg in […] PBS via retro-orbital injection after CLP. This dose was chosen primarily on the basis of our laboratory’s prior experience, we have consistently used this dose in mouse CLP models with reproducible efficacy and without observable toxicity ([39], [44]). Sham-operated animals underwent a laparotomy without CLP. After closure, the mice received a subcutaneous injection of 0.5 mL of normal saline to overcome surgery-induced dehydration. For 20-hour experiments, animals were not injected with antibiotics; however, for survival studies, animals were given 0.5 mg per kg body weight imipenem (lot 4D21K05, WG Critical Care LLC) subcutaneously in 0.5 mL saline once at the end of CLP. All mice were subcutaneously injected with a single dose of 0.1 mg/kg buprenorphine after CLP.” for “study.”

The test system of test [3] is c-GSDMD. The test can be described thus: c/t GSDMD (pyroptosis) in PVECs cocultured with neutrophils, Western blot. In kind it is cell-based, mouse. Conditions: for c/t GSDMD (Figure 4G): 10 μM peptide, 16 h, individual replicates. On the procedure: Wild-type PVECs (5 × 10^5) were cocultured with sorted DLL4^+ neutrophils (5 × 10^5) or DLL4^– neutrophils (5 × 10^5) and then treated with different dosages of peptides or 10 μM DAPT (Thermo Fisher Scientific), 10 μM NDI (GenScript), or 10 μM NDI scramble (GenScript). Notch1-knockdown PVECs (5 × 10^5) were cocultured with sorted DLL4^+ neutrophils (5 × 10^5). After 16 hours, neutrophils were washed away by PBS, and PVECs were collected for further experiments. Cell viability was evaluated by propidium iodide staining using the FITC Annexin V Apoptosis Detection Kit I (catalog 556547, BD Pharmingen). Cell death was quantified as the percentage of propidium iodide–positive cells by flow cytometry.
PVECs and lung tissue were collected in previous steps. Whole-cell proteins were extracted, and the protein concentration was measured using an ABC protein assay kit (catalog 5000002, Bio-Rad). Proteins were separated using NuPAGE 4%–12% Bis-Tris gels (Invitrogen), transferred to PVDF membranes, and immunoblotted with the antibodies indicated in the figure legends according to the manufacturer’s recommendations. The ZBP1 antibody (catalog PA5-20455; 1:1,000) used in this study was obtained from Thermo Fisher Scientific, and the c-GSDMD (catalog 10137S; 1:250), GSDMD (catalog 39754S; 1:1000), c-caspase-3 (catalog 9661L; 1:250), caspase-3 (catalog 9662S; 1:1,000), p-MLKL (catalog 37333S; 1:250), MLKL (catalog 37705S; 1:1,000), N1ICD (c-Notch1) (catalog 4147S; 1:250), and Notch1 (catalog 3608S; 1:1,000) antibodies were obtained from Cell Signaling Technology. GAPDH (catalog 60004-1-Ig; 1:10,000) and β-actin (catalog A5441, Sigma-Aldrich; 1:5,000) were obtained from ProteinTech. After the blots were incubated with primary antibodies, the membranes were washed 3 times, and the blots were subsequently incubated with the corresponding fluorescent secondary antibody (LI-COR). Bands were detected using an Odyssey FC Dual-Mode Imaging system 2800 (LI-COR).

The subject of test [4] is ZBP1. Nature of the test: ZBP1 mRNA in lungs of CLP mice, RT-PCR. In kind it is in vivo, mouse. Conditions: 20 h; for lung ZBP1 mRNA (Figure 5A): 10 mg/kg NDI retro-orbital, vs sham, individual mice, 10 mg/kg. The procedure: as §1, with “study. Vehicle groups received an equivalent volume of PBS, while treatment groups received NDI 10 mg/kg in […] PBS via retro-orbital injection after CLP. This dose was chosen primarily on the basis of our laboratory’s prior experience, we have consistently used this dose in mouse CLP models with reproducible efficacy and without observable toxicity ([39], [44]). Sham-operated animals underwent a laparotomy without CLP. After closure, the mice received a subcutaneous injection of 0.5 mL of normal saline to overcome surgery-induced dehydration. For 20-hour experiments, animals were not injected with antibiotics; however, for survival studies, animals were given 0.5 mg per kg body weight imipenem (lot 4D21K05, WG Critical Care LLC) subcutaneously in 0.5 mL saline once at the end of CLP. All mice were subcutaneously injected with a single dose of 0.1 mg/kg buprenorphine after CLP.” for “study.”

Test [5] concerns DLL4. The test can be described thus: DLL4 mRNA in eCIRP-treated BMDNs, qPCR. To be noted: for DLL4 mRNA: DLL4-CIRP. Format: cell-based, mouse. On the procedure: mRNA was extracted from lung tissues with TRIzol reagent (Invitrogen, Thermo Fisher Scientific). An equal amount ([…]) of mRNA was reverse-transcribed into cDNA using the reverse transcriptase enzyme (Invitrogen, Thermo Fisher Scientific). qPCR was performed from the diluted cDNA templates with forward and reverse primers (Supplemental Table 4) and SYBR Green PCR Master Mix (Applied Biosystems, Thermo Fisher Scientific) using an Applied Biosystems 7300 real-time PCR machine. Mouse β-actin served as an internal control gene for normalization. Relative expression of mRNA was represented as fold change in comparison with the sham group.
BMDNs (1 × 10^6) were treated with eCIRP (1 μg/mL) for 12 hours, and DLL1, DLL3, and DLL4 were analyzed by qPCR.
Background: In qPCR the cycle at which signal appears reflects the starting amount.

Where “and” joins values, the source holds several entries; their conditions need not be identical. Equal values may be shown once.

Take ECAGSPCHNGGTCEDGI [NDI]: the “effect on ZBP1 in pulmonary endothelial cells, immunostaining” value in test [1] is “reduced ZBP1 expression in pulmonary endothelial cells in sepsis”. The “effect on lung TNF-α mRNA” value in test [2] (DLL4^+ neutrophil-injected CLP mice, 10 mg/kg) was “significantly decreased the mRNA expression of TNF-α, IL-6, and KC in lung tissues”. Besides, the “lung TNF-α mRNA (Figure 6F)” value in test [2] (DLL4^+ neutrophils + CLP) was 4.255 fold change and 2.291 fold change and 5.674 fold change and 4.568 fold change and 3.143 fold change and 2.408 fold change and 0.5968 fold change and 4.125 fold change and 0.8652 fold change and 4.064 fold change and 0.4766 fold change and 9.1932 fold change and 5.227 fold change and 8.424 fold change; in test [2] (DLL4^– neutrophils + CLP), 8.678 fold change and 9.157 fold change and 5.574 fold change and 9.371 fold change and 6.524 fold change and 4.342 fold change and 3.267 fold change and 5.109 fold change and 7.731 fold change. In test [3] (10 μM NDI, DLL4^+ neutrophil coculture), the “effect on c-GSDMD” value is “significantly reduced these markers of PANoptosis”. Further, the “c/t GSDMD (Figure 4G)” value was 1.2879 and 0.9868 and 1.126 and 1.624 and 1.978 and 2.103 and 0.1622 and 0.328 and 1.184 in test [3] (DLL4^+ neutrophil coculture); 0.692 and 1.126 and 1.001 and 1.013 and 0.9854 and 1.021 in test [3] (DLL4^– neutrophil coculture). In addition, the “lung ZBP1 mRNA (Figure 5A)” value was 2.489 fold change and 2.951 fold change and 0.6537 fold change and 1.296 fold change and 1.101 fold change and 2.543 fold change and 1.904 fold change and 2.345 fold change and 0.6068 fold change and 1.613 fold change and 2.244 fold change and 2.348 fold change and 0.6906 fold change in test [4] (DLL4^+ neutrophils i.v. + CLP); 3.779 fold change and 3.701 fold change and 3.374 fold change and 2.776 fold change and 2.9508 fold change and 2.383 fold change and 4.109 fold change and 2.422 fold change in test [4] (DLL4^– neutrophils + CLP). For the same molecule, the “effect on lung ZBP1 mRNA” value in test [4] (DLL4^+ neutrophils/sepsis, 10 mg/kg NDI) is recorded as “effectively decreased ZBP1 expression”.

B1: eCIRP: extracellular cold-inducible RNA-binding protein; recombinant murine, produced in our laboratory (protein, UniProt P60824 1-172, looked up)
Cold-inducible RNA-binding …: MASDEGKLFVGGLSFDTNEQALEQVFSKYGQISEVVVVKDRETQRSRGFGFVTFENIDDAKDAMMAMNGKSVDGRQIRVDQAGKSSDNRSRGYRGGSAGGRGFFRGGRSRGRGFSRGGGDRGYGGGRFESRSGGYGGSRDYYASRSQGGSYGYRSSGGSYRDSYDSYATHNE
Turning to B1, the “effect on DLL4 expression” value in test [5] (BMDNs, eCIRP 1 μg/mL, 12 h) is given as “selectively upregulated DLL4”. In addition, the “DLL4 mRNA” value is 2.784 in test [5] (replicate 1); 1.987 in test [5] (replicate 2); 1.949 in test [5] (replicate 3); 2.578 in test [5] (replicate 4); 2.145 in test [5] (replicate 5); 5.912 in test [5] (replicate 6). Moreover, the “DLL4 mRNA” value in test [5] (replicate 7) is given as 4.801; in test [5] (replicate 8) it was 3.122.
